This is an account of results in PMC8799717, “Pharmacological targeting PIKfyve and tubulin as an effective treatment strategy for double-hit lymphoma” (Cell Death Discovery, 2022).

Among the targets are AAK1 (Homo sapiens, UniProt Q2M2I8); SRPK1 (Homo sapiens, UniProt Q96SB4); CLK4 (Homo sapiens, UniProt Q9HAZ1); TNK2 (Homo sapiens, UniProt Q07912); DAPK2 (Homo sapiens, UniProt Q9UIK4); LATS1 (Homo sapiens, UniProt O95835); INSR (Homo sapiens, UniProt P06213); SGK3 (Homo sapiens, UniProt Q96BR1); VRK2 (Homo sapiens, UniProt Q86Y07); KIT(V559D,T670I) (Homo sapiens, UniProt P10721, T670I/V559D); AXL (Homo sapiens, UniProt P30530); PIM3 (Homo sapiens, UniProt Q86V86); FLT3(ITD,F691L) (Homo sapiens, UniProt P36888, F691L/ITD); ERBB2 (Homo sapiens, UniProt P04626); CIT (Homo sapiens, UniProt O14578); PIK3CA(H1047L) (Homo sapiens, UniProt P42336, H1047L).

Holding throughout (assay): biochemical
Design in all cases: KINOMEscan active-site-directed competition binding panel, 468 kinases, percent of DMSO control at 1 uM
Holding throughout (details): KINOMEscan binding, percent of DMSO control; read-out: Ctrl%

The target in a further assay is T1, PKAC-beta (Homo sapiens, UniProt P22694).
T1 construct: gene PRKACB

Assay [1] has as its target T2, ABL1(Q252H)-phosphorylated (Homo sapiens, UniProt P00519, Q252H).
T2 construct: phosphorylated

The next assay has as its target T3, CDK4-cyclinD1 (Homo sapiens, UniProt P11802).
T3 construct: cyclinD1

A further assay concerns the target T4, PYK2 (Homo sapiens, UniProt Q14289).
T4 construct: gene PTK2B

The target in assay [2] is T5, RPS6KA4(Kin.Dom.1-N-terminal) (Homo sapiens, UniProt O75676).
T5 construct: Kin.Dom.1-N-terminal

The target of assay [3] is T6, RPS6KA5(Kin.Dom.1-N-terminal) (Homo sapiens, UniProt O75582).
T6 construct: Kin.Dom.1-N-terminal
T6 sequence (O75582 whole entry): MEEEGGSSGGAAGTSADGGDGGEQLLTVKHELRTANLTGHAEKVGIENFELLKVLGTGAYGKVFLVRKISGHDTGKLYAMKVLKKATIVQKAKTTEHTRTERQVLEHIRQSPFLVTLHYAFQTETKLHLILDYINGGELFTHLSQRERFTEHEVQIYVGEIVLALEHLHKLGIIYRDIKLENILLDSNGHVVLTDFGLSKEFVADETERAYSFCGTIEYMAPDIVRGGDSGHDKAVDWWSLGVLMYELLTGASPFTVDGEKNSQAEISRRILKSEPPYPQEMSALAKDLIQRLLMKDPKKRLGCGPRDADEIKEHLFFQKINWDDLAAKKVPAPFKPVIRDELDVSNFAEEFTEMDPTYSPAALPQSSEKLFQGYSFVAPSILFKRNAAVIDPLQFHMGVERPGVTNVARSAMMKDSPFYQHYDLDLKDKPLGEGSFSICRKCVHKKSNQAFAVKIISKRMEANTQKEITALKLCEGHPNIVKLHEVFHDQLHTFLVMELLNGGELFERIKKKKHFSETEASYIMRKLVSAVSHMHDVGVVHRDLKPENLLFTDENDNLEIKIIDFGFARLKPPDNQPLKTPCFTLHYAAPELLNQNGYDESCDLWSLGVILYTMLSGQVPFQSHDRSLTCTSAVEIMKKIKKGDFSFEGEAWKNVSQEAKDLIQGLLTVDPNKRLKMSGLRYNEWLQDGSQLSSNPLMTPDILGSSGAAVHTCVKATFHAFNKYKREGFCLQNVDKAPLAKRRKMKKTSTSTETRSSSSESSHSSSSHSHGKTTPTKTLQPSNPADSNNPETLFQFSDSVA

Another assay has as its target T7, SGK (Homo sapiens, UniProt O00141).
T7 construct: gene SGK1

A further assay concerns the target T8, MEK2 (Homo sapiens, UniProt P36507).
T8 construct: gene MAP2K2

Sequence of INSR (P06213 whole entry): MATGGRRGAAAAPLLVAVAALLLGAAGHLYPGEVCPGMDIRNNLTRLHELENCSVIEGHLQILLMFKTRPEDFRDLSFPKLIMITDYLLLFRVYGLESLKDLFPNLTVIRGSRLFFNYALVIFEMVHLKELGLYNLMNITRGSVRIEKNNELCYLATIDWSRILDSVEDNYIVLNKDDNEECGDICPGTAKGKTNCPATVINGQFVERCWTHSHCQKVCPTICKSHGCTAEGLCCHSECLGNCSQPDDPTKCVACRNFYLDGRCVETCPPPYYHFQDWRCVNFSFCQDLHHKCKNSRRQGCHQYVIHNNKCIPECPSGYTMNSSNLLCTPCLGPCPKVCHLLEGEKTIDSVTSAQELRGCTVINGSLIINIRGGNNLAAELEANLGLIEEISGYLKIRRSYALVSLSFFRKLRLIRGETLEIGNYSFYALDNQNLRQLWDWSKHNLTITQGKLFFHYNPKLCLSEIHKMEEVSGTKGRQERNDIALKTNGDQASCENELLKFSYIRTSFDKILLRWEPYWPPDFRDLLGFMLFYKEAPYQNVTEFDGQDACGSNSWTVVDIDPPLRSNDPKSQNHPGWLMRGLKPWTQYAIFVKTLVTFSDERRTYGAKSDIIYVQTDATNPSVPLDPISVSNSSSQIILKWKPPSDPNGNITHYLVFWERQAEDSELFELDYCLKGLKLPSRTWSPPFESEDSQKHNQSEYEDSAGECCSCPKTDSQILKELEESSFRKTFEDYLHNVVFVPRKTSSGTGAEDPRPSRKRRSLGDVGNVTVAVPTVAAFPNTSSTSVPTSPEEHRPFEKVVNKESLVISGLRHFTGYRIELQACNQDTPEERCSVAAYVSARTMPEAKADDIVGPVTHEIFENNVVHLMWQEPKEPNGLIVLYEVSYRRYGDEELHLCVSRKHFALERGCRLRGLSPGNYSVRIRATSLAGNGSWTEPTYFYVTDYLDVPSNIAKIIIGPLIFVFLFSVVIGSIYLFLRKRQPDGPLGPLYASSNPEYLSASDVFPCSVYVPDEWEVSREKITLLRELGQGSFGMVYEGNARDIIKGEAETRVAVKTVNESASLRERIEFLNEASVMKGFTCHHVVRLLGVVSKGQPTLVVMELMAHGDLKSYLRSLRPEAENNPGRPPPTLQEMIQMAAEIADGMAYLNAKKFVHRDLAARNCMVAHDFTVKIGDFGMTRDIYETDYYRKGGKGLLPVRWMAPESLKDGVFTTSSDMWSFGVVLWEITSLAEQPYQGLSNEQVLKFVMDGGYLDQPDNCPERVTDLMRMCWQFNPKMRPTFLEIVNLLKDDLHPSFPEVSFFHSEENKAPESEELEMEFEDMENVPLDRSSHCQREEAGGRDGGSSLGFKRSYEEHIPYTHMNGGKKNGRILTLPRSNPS
Sequence of PIK3CA(H1047L) (P42336 whole entry H1047L): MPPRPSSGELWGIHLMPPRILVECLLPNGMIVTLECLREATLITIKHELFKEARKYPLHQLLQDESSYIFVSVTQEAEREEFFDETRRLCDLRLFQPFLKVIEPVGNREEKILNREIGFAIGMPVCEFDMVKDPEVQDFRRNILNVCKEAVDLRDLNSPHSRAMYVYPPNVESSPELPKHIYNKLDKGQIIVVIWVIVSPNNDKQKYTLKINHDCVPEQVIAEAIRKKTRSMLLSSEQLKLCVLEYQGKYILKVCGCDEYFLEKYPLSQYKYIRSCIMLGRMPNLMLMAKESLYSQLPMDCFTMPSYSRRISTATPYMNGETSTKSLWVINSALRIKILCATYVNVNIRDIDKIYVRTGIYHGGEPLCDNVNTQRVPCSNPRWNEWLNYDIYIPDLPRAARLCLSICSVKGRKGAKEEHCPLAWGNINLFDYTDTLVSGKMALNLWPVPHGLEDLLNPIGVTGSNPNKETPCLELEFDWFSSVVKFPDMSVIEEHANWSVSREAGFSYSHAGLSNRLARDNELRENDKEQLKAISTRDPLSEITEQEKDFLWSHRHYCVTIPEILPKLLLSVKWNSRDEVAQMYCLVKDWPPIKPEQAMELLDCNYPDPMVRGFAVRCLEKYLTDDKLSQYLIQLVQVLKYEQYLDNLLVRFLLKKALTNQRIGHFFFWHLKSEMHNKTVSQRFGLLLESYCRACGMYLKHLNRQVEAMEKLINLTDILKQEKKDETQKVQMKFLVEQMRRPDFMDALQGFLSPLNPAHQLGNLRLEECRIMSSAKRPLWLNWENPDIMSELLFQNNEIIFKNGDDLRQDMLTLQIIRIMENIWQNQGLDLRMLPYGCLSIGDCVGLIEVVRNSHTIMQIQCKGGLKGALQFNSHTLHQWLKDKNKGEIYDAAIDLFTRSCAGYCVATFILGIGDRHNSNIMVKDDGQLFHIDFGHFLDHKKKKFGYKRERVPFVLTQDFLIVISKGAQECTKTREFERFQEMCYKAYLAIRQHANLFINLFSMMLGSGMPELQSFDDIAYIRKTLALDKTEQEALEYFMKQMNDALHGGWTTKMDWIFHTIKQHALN
T4 sequence (Q14289 whole entry): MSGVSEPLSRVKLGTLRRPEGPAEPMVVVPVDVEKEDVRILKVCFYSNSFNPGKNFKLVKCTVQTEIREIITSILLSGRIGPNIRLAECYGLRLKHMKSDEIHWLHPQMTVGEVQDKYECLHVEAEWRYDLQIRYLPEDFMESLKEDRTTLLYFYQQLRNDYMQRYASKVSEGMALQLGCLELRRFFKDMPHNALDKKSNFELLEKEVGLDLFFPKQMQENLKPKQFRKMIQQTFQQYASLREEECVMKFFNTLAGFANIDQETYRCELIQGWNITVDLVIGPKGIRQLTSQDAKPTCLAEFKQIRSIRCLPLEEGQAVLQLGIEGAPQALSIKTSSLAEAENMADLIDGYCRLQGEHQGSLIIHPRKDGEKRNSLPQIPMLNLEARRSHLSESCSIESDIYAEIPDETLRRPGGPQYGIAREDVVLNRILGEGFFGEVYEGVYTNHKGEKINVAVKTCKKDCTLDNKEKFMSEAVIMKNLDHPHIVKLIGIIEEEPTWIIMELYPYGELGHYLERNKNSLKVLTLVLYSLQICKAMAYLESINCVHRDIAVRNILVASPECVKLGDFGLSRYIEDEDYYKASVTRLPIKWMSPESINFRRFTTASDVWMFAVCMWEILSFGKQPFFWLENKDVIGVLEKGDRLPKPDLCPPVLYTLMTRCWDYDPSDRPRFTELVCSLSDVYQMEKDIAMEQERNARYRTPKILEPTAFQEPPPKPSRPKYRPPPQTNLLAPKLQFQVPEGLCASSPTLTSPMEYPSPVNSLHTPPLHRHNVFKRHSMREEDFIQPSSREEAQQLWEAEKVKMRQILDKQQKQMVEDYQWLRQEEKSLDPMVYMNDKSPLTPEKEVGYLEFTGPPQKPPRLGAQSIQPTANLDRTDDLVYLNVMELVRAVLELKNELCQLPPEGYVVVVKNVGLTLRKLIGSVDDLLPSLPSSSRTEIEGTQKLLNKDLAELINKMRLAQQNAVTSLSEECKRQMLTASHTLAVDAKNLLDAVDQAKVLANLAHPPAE
Sequence of FLT3(ITD,F691L) (P36888 564-993 F691L): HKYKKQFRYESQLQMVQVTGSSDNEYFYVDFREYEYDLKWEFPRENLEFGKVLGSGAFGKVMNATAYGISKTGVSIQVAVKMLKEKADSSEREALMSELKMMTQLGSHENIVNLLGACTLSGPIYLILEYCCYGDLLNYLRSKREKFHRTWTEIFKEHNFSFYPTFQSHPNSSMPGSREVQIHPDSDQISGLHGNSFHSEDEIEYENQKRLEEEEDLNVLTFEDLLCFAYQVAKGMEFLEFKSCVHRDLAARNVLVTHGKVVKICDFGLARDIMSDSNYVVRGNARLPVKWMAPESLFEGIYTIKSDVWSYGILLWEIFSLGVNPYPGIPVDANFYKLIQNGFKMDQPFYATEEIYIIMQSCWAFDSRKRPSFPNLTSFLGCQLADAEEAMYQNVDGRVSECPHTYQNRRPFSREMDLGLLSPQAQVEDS

Take `Cc1ccc(NC(=O)c2cccc(C(F)(F)F)c2)cc1Nc1cc(-c2cccnc2)nc2[nH]ccc12` [HZX-02-059]: the remaining binding at 1 µM on AAK1 stood at 87%; at SRPK1 it was 95%; on CLK4 it was 94%; at PKAC-beta it was 95%; at TNK2, 98%; on DAPK2, 100%. Moreover, the remaining binding at 1 µM at LATS1 turned out to be 95%; on INSR it was 100%; in [1], 61%; at SGK3 it was 100%; at CDK4-cyclinD1, 98%; at VRK2, 100%. Also, the remaining binding at 1 µM was found to be 100% at PYK2; 93% in assay [2]; 80% at KIT(V559D,T670I); 90% on AXL; 89% at PIM3; 100% at FLT3(ITD,F691L). For the same compound, the remaining binding at 1 µM was determined as 95% at ERBB2; 64% on CIT; 94% in [3]; 100% at SGK; 56% at PIK3CA(H1047L); 100% at MEK2.
